Results published in US20250268736A1, “VASCULAR STENT AND MANUFACTURING PROCESS THEREFOR” (THE SECOND AFFILIATED HOSPITAL OF GUANGZHOU MEDICAL …, priority 2024, published 2025).

Tests used:
[1] = tested on: endothelial protein C receptor (EPCR); experiment: Western blotting of EPCR protein expression in HCAECs treated with limus drugs or paclitaxel; assay type: cell-based, human; settings: 24 h
Method: (§1) Specifically, HCAECs are cultured in an endothelial cell basal medium (EBM)-2 (Lonza, CC3156) supplemented with a 3% fetal bovine serum (FBS) and endothelial growth factor supplement mixture (Lonza, CC4176) under standard cell culture conditions (37° C., 5% CO2), and P3-5 cells are tested at 70%-80%. Western blotting is performed to test protein expression after HCAECs are treated with rapamycin, zotarolimus, everolimus, and paclitaxel at the doses shown in FIG. 1, or 100 nM of tacrolimus, deforolimus, biolimus A9, and pimecrolimus for 24 h. Alternatively, C57BL6/J mice received rapamycin, zotarolimus, everolimus, and paclitaxel at 2 mg/kg of body weight daily via tail vein injection for 2 weeks, and immunofluorescence observation of tissues is performed.

[2] = tested on: endothelial protein C receptor (EPCR); experiment: Immunofluorescence of EPCR in mouse cardiac vessels after tail vein injection; assay type: in vivo; settings: C57BL6/J mice, 2 mg/kg daily via tail vein injection for 2 weeks
Method: as §1

HCAECs [3] = experiment: Scratch migration of HCAECs on coated 316 L stainless steel; assay type: cell-based, human; settings: PLGA slow-release coating, 48 h, scratch method; rapamycin 50 μg/mL; activators in combination with rapamycin
Method: (§2) The effect of APC on a simulated stent environment of PLGA slow-release coating on a 316 L steel sheet is investigated. Slow-release coatings of a solvent control (tetrahydrofuran, THF) wrapped in poly(lactic-co-glycolic acid) (PLGA 75:25), rapamycin (50 μg/mL), APC (50 μg/mL), 40 μM of TR47, and 20 μM of Parmodulin 2, or each in combination with rapamycin (50 μg/mL) are coated on surfaces of 316 L stainless steel plates respectively.
(§3) After HCAECs are grown on the 316 L stainless steel plate for 48 h, the cell viability is tested by a CCK-8 method, the cell multiplication capacity is tested by an EdU method, and the cell migration capacity is tested by a scratch method. The HCAECs are co-cultured with neutrophils (10^6/well) or platelets (5×10^6/well) labeled with 2 μM of PKH-26 for 1 h. Calcein-AM staining is followed by fluorescence microscopy.

neutrophils on HCAECs = experiment: Adhesion of neutrophils to HCAECs on coated 316 L stainless steel; assay type: cell-based, human; settings: PLGA slow-release coating on 316 L steel, co-culture 1 h; activators in combination with rapamycin
Method: as §2
as §3, with “The HCAECs are co-cultured with neutrophils (10^6/well) or platelets (5×10^6/well) labeled with 2 μM of PKH-26 for 1 h.” left out
(§4) The above cells are inoculated on 316 SS, 316 L SS/Rapamycin, 316 L SS/Rapamycin/APC, 316 L SS/Rapamycin/TR47, and 316 L SS/Rapamycin/Parmodulin 2 in a 24-well plate at a density of 2×10^4 cells/mL. 10 μL of CCK-8 reaction solution is added to a 24-well plate according to CCK-8 instructions, and the optical density value (OD value) is measured at 4 h by a spectrophotometer with a wavelength of 450 nm. For EdU analysis, reagent A is added a medium in a 24-well plate and cultured at 37° C. for 4 h to label EdU, and then, cells are captured with a fluorescence microscope (EVOS FL) according to manufacturer's instructions. […]

platelets on HCAECs = experiment: Adhesion of platelets to HCAECs on coated 316 L stainless steel; assay type: cell-based, human; settings: PLGA slow-release coating on 316 L steel, co-culture 1 h; activators in combination with rapamycin
Method: as §2
as §3, with “The HCAECs are co-cultured with neutrophils (10^6/well) or platelets (5×10^6/well) labeled with 2 μM of PKH-26 for 1 h.” left out
as §4

HCAECs [4] = experiment: Growth of HCAECs on coated 316 L stainless steel (stent simulation environment); assay type: cell-based, human; settings: PLGA slow-release coating, 48 h; rapamycin 50 μg/mL; activators (APC 50 μg/mL, TR47 40 μM, Parmodulin 2 20 μM) in combination with rapamycin
Method: as §2
as §3, with “The HCAECs are co-cultured with neutrophils (10^6/well) or platelets (5×10^6/well) labeled with 2 μM of PKH-26 for 1 h.” left out
as §4

[5] = tested on: endothelial protein C receptor (EPCR); experiment: Western blotting of EPCR expression and EPCR pathway in HCAECs treated with EPCR activators, alone or with rapamycin; assay type: cell-based, human; settings: for activation of the EPCR pathway in HCAECs / protein expression of the EPCR in HCAECs: 10 μM APC, 40 μM TR47, 20 μM Parmodulin 2, 24 h; for effect on the rapamycin-induced inhibition of the EPCR in HCAECs: activator in combination with 100 nM rapamycin, 24 h
Method: Specifically, HCAECs are cultured in an EBM-2 (Lonza, CC3156) supplemented with a 3% fetal bovine serum (FBS) and endothelial growth factor supplement mixture (Lonza, CC4176) under standard cell culture conditions (37° C., 5% of CO2), and cells of generations of P3-5 are tested at 70%-80%. HCAECs are treated with 10 μM of APC, 40 μM of TR47 and 20 μM of Parmodulin 2, or each in combination with 100 nM of rapamycin for 24 h, and then, western blotting is performed for testing protein expression.

[6] = tested on: vascular smooth muscle cells (HCASMCs, HASMCs); experiment: EdU cell multiplication of vascular smooth muscle cells; assay type: cell-based, human; settings: APC 10 μM
Method: (§5) Generations 3-5 of primary human coronary artery smooth muscle cells (HCASMCs) are cultured in a growth medium (Cell applications, cat #31-500). Human arterial smooth muscle cells (HASMCs) are cultured in a smooth muscle cell culture medium containing 2% of FBS and 1% of penicillin/streptomycin at 37° C. in a humidified atmosphere containing 5% of CO2. Ad-EC or Ad-EPCR infected the cells for 48 h. APC is 10 μM, and rapamycin is 100 nM. Fluorescence is observed by a microscope. Protein expression is tested by means of western blotting. The cell viability is tested by means of CCK-8, the cell multiplication capacity is observed by means of EdU, and the migration capacity is evaluated by means of Transwel chamber and scratch tests.

[7] = tested on: vascular smooth muscle cells (HCASMCs, HASMCs); experiment: CCK-8 cell viability of vascular smooth muscle cells; assay type: cell-based, human; settings: APC 10 μM
Method: as §5

[8] = tested on: vascular smooth muscle cells (HCASMCs, HASMCs); experiment: Transwel chamber and scratch migration tests of vascular smooth muscle cells; assay type: cell-based, human; settings: APC 10 μM
Method: as §5

HCAECs [9] = experiment: EdU multiplication of HCAECs on coated 316 L stainless steel; assay type: cell-based, human; settings: PLGA slow-release coating, 48 h, rapamycin 50 μg/mL, activators in combination with rapamycin
Method: as §2
as §3, with “The HCAECs are co-cultured with neutrophils (10^6/well) or platelets (5×10^6/well) labeled with 2 μM of PKH-26 for 1 h.” left out
as §4

HCAECs [10] = experiment: CCK-8 viability of HCAECs on coated 316 L stainless steel; assay type: cell-based, human; settings: PLGA slow-release coating, 48 h, rapamycin 50 μg/mL, activators in combination with rapamycin
Method: as §2
as §3, with “The HCAECs are co-cultured with neutrophils (10^6/well) or platelets (5×10^6/well) labeled with 2 μM of PKH-26 for 1 h.” left out
as §4

[11] = doses shown in FIG. 1, western blotting

Molecule: CCOCCO[C@@H]1CC[C@@H](C[C@@H](C)[C@@H]2CC(=O)[C@H](C)/C=C(\C)[C@@H](O)[C@@H](OC)C(=O)[C@H](C)C[C@H](C)/C=C/C=C/C=C(\C)[C@@H](OC)C[C@@H]3CC[C@@H](C)[C@@](O)(O3)C(=O)C(=O)N3CCCC[C@H]3C(=O)O2)C[C@H]1OC [biolimus A9]
- expression of EPCR in HCAECs ([1]; 100 nM, western blotting): inhibit expression of the EPCR in HCAECs

Molecule: CO[C@H]1C[C@@H]2CC[C@@H](C)[C@@](O)(O2)C(=O)C(=O)N2CCCC[C@H]2C(=O)O[C@H]([C@H](C)C[C@@H]2CC[C@@H](OCCO)[C@H](OC)C2)CC(=O)[C@H](C)/C=C(\C)[C@@H](O)[C@@H](OC)C(=O)[C@H](C)C[C@H](C)/C=C/C=C/C=C/1C [everolimus]
- expression of EPCR in mouse cardiac vessels [2]: inhibit expression of the EPCR in mouse cardiac vessels
- expression of EPCR in HCAECs [1, 11]: inhibit expression of an EPCR in HCAECs in a concentration-dependent manner

Molecule: activated protein C [APC]
- migration of HCAECs on 316 L stainless steel (HCAECs [3]): restore
- adhesion of neutrophils to surface of ECs (neutrophils on HCAECs): inhibit adhesion
- adhesion of platelets to surface of ECs (platelets on HCAECs): inhibit adhesion
- growth of HCAECs on 316 L stainless steel (HCAECs [4]): restore
- activation of the EPCR pathway in HCAECs [5]: protectively activate the EPCR pathway
- protein expression of the EPCR in HCAECs [5]: induce protein expression of the EPCR in the cells
- effect on the rapamycin-induced inhibition of the EPCR in HCAECs [5]: antagonize the inhibitory effect of limus drugs such as rapamycin on the EPCR
- multiplication capacity of vascular smooth muscle cells [6]: does not affect
- cell viability of vascular smooth muscle cells [7]: does not affect
- migration capacity of vascular smooth muscle cells [8]: does not affect
- multiplication of HCAECs on 316 L stainless steel (HCAECs [9]): restore
- viability of HCAECs on 316 L stainless steel (HCAECs [10]): restore

Molecule: CC(=O)O[C@H]1C(=O)[C@@]2(C)[C@H]([C@H](OC(=O)c3ccccc3)[C@]3(O)C[C@H](OC(=O)[C@H](O)[C@@H](NC(=O)c4ccccc4)c4ccccc4)C(C)=C1C3(C)C)[C@]1(OC(C)=O)CO[C@@H]1C[C@@H]2O [paclitaxel]
- expression of EPCR in mouse cardiac vessels [2]: inhibit expression of the EPCR in mouse cardiac vessels
- expression of EPCR in HCAECs [1, 11]: inhibit expression of an EPCR in HCAECs in a concentration-dependent manner

Molecule: C=CC[C@@H]1/C=C(\C)C[C@H](C)C[C@H](OC)[C@H]2O[C@@](O)(C(=O)C(=O)N3CCCC[C@H]3C(=O)O[C@H](/C(C)=C/[C@@H]3CC[C@@H](O)[C@H](OC)C3)[C@H](C)[C@@H](O)CC1=O)[C@H](C)C[C@@H]2OC [tacrolimus]
- expression of EPCR in HCAECs ([1]; 100 nM, western blotting): inhibit expression of the EPCR in HCAECs

Molecule: CCCC(=O)Nc1cccc(NC(=O)c2ccccc2Br)c1 [Parmodulin 2]
- migration of HCAECs on 316 L stainless steel (HCAECs [3]): restore
- adhesion of neutrophils to surface of ECs (neutrophils on HCAECs): inhibit adhesion
- adhesion of platelets to surface of ECs (platelets on HCAECs): inhibit adhesion
- growth of HCAECs on 316 L stainless steel (HCAECs [4]): restore
- activation of the EPCR pathway in HCAECs [5]: protectively activate the EPCR pathway
- protein expression of the EPCR in HCAECs [5]: induce protein expression of the EPCR in the cells
- effect on the rapamycin-induced inhibition of the EPCR in HCAECs [5]: antagonize the inhibitory effect of limus drugs such as rapamycin on the EPCR
- multiplication of HCAECs on 316 L stainless steel (HCAECs [9]): restore
- viability of HCAECs on 316 L stainless steel (HCAECs [10]): restore

Molecule: CO[C@H]1C[C@@H]2CC[C@@H](C)[C@@](O)(O2)C(=O)C(=O)N2CCCC[C@H]2C(=O)O[C@H]([C@H](C)C[C@@H]2CC[C@@H](OP(C)(C)=O)[C@H](OC)C2)CC(=O)[C@H](C)/C=C(\C)[C@@H](O)[C@@H](OC)C(=O)[C@H](C)C[C@H](C)/C=C/C=C/C=C/1C [deforolimus]
- expression of EPCR in HCAECs ([1]; 100 nM, western blotting): inhibit expression of the EPCR in HCAECs

Molecule: CC[C@@H]1/C=C(\C)C[C@H](C)C[C@H](OC)[C@H]2O[C@@](O)(C(=O)C(=O)N3CCCC[C@H]3C(=O)O[C@H](/C(C)=C/[C@@H]3CC[C@H](Cl)[C@H](OC)C3)[C@H](C)[C@@H](O)CC1=O)[C@H](C)C[C@@H]2OC [pimecrolimus]
- expression of EPCR in HCAECs ([1]; 100 nM, western blotting): inhibit expression of the EPCR in HCAECs

Molecule: CO[C@H]1C[C@@H]2CC[C@@H](C)[C@@](O)(O2)C(=O)C(=O)N2CCCC[C@H]2C(=O)O[C@H]([C@H](C)C[C@@H]2CC[C@H](n3cnnn3)[C@H](OC)C2)CC(=O)[C@H](C)/C=C(\C)[C@@H](O)[C@@H](OC)C(=O)[C@H](C)C[C@H](C)/C=C/C=C/C=C/1C [zotarolimus]
- expression of EPCR in mouse cardiac vessels [2]: inhibit expression of the EPCR in mouse cardiac vessels
- expression of EPCR in HCAECs [1, 11]: inhibit expression of an EPCR in HCAECs in a concentration-dependent manner
